These results are taken from patent publication US4749710A, “Immunosuppressive agents” (priority 1985, dated 1988).

Assay [1] concerns IgG production by human lymphocytes. Description: Inhibition of IgG production by human lymphocytes in vitro (SAC activation, ELISA). Particulars: 8 days, vehicle control 0.78 ± 0.09. The class given is cell-based. The text has this:
(§1) General Test Description Humoral immunity comprises one of the two major arms of the immune system and generally is beneficial. However, a number of disease states are characterized by a hyperactive immune system responding to self tissue antigens. […] In these diseases it would be important to suppress the humoral immune system.
(§2) In the following studies we used established methods to examine the effect of Vitamin D derivatives on the in vitro production of immunoglobulin (Ig) by human peripheral blood leukocytes (PBL) following polyclonal activation. Immunoglobulin was induced from PBL by co-culturing the PBL with the polyclonal B cell activator Staphylococcus aureus strain Cowan I (SAC) for a period of 8 days. The quantity of Ig produced in the culture supernatants was determined by using an enzyme linked immunosorbent assay (ELISA). The effect of Vitamin D derivatives was determined by comparing the amount of antibody produced in cultures containing Vitamin D derivatives to those cultures containing an appropriate concentration of vehicle (ethanol).
(§3) Solutions of vitamin D derivatives. Stock solutions of vitamin D derivatives were prepared as described previously for the murine CTL experiments.
(§4) INDUCTION OF HUMAN IG SECRETION Human peripheral blood mononuclear leukocytes were prepared from one day old buffy coat preparations obtained from the American Red Cross (Lansing, MI). […] Twenty five ml of this preparation were overlayed onto 25 ml of Ficoll-Paque contained in a 50 ml polypropylene centrifuge tube. After centrifugation at 400×g at 15° C. for 40 min, the cells at the interface of the medium and Ficoll were removed and washed 3 times in 50 ml RPMI medium and centrifuged at 300×g for 10 minutes. After the final centrifugation,the cell pellet was suspended in RPMI medium containing 20% fetal bovine serum (FBS) and 80 μg/ml gentamicin. The number of viable cells was determined by trypan blue exclusion and were then suspended to 2.5×10^6 viable cells per ml in RPMI containing 20% FBS and gentamicin. Human PBL were induced to secrete Ig as follows. One hundred microliters of the PBL suspension and an additional 100 μl of a 1:20,000 (v/v) preparation of SAC suspended in RPMI containing 1% FBS were added to each well of a 96-well microtiter plate. Selected wells were also set up without the addition of SAC to serve as negative controls (spontaneous Ig secretion). Each well then received 20 μl of either the appropriate dilution of Vitamin D derivative in RPMI with 1% ethanol or RPMI with 1% ethanol (vehicle control). The vitamin D derivatives were tested at final concentrations of 10^-5, 10^-6, 10^-7, 10^-8, 10^-9, and 10^-10 M and in all cases the vehicle (ethanol) concentration was 0.1%. All treatments were performed in triplicate. […] The samples were then either assayed immediately or stored at -20° C. until assayed by the ELISA technique described below.
(§5) QUANTITATION OF SECRETED IG (ELISA ASSAY) ELISA plates were prepared for quantitating human IgG and IgM levels in culture supernatants as follows. Affinity purified sheep anti-human IgG and goat anti-human IgM (Cappel, Cochranville, PA) were diluted 1:250 and 1:400 respectively, in carbonate coating buffer (0.05M sodium bicarbonate, 0.05M sodium carbonate, 0.15M sodium chloride). One hundred and fifty microliters of the antibody preparation were added to each well of a 96 well ELISA plate (EIA, Costar). The plates were sealed and incubated overnight at 4° C. and on the following day were washed 3 times with distilled water. Each well then received 350 μl of Dulbecco's PBS containing 1 mg/ml bovine serum albumin (BSA) and 0.5 mg/ml sodium azide. The plates were allowed to incubate for 1 hour at 37° C. and then washed 3 times with Dulbecco's PBS containing 0.5% stock Tween 20 (PBS-Tween) followed by 2 washes with distilled water. The plates were air dried and stored desiccated under a vacuum at 4° C. until use.
On the technique in general: ELISA stands for enzyme-linked immunosorbent assay.

For assay [2], the system named is IgM production by human lymphocytes. Description: Inhibition of IgM production by human lymphocytes in vitro (SAC activation, ELISA). The class given is cell-based. Particulars: 8 days, vehicle control 2.49 ± 0.17.
Text: as §1, §2, §3, §4, §5

For `C=C1/C(=C\C=C2/CCC[C@]3(C)[C@@H]([C@H](C)CCCC(C)(C)O)CC[C@@H]23)C[C@@H](O)C[C@@H]1F` [1α-F--25-OH--D3, 1α-Fluoro-25-hydroxycholecalciferol], the “IgG μg per culture (x ± S.E.M.)” value in assay [1] (1 × 10^-6 molar) is recorded as “undetectable”; in assay [1] (1 × 10^-7 molar), 0.08 ± 0.05 μg per culture; in assay [1] (1 × 10^-8 molar), 0.14 ± 0.05 μg per culture; in assay [1] (1 × 10^-9 molar) it was 0.18 ± 0.001 μg per culture; in assay [1] (1 × 10^-10 molar) it was 0.45 ± 0.11 μg per culture. For the same molecule, the “IgM μg per culture (x ± S.E.M.)” value in assay [2] (1 × 10^-6 molar) is “undetectable”; in assay [2] (1 × 10^-7 molar) it was 0.38 ± 0.30 μg per culture; in assay [2] (1 × 10^-8 molar) it was 1.83 ± 0.29 μg per culture; in assay [2] (1 × 10^-9 molar) it was 3.10 ± 0.10 μg per culture; in assay [2] (1 × 10^-10 molar) it was 4.48 ± 0.75 μg per culture.
